Results on 19 compounds are retold here after US20220251081A1, “HETEROBICYCLIC INHIBITORS OF MAT2A AND METHODS OF USE FOR TREATING CANCER” (priority 2019, published 2022).

Each structure is given as a SMILES string.

Assay [1] concerns the target T1, MAT2A homodimer (Homo sapiens, UniProt P31153).
T1 construct: inferred from Ni sepharose purification and imidazole elution; made in house; host or cells: Sf9 insect cells, recombinant baculovirus (Bac to Bac, pFASTBAC1 vector)
Description: Biochemical assay: inhibition of recombinant MAT2A homodimer (phosphate release, PiColorLock Gold). Conditions: MAT2A IC50 score; read-out: Enzyme Inhibition. On the procedure:
Mat2A protein was expressed by recombinant baculovirus in SF9 infected cells using the Bac to Bac system cloned into the pFASTBAC1 vector (Invitrogen, Carlsbad, Calif.). Recombinant MAT2A was isolated from the cell lysate of 150 g of infected cells using HP Ni sepharose column chromatography. Recombinant MAT2A homodimer was eluted with 250 and 500 mM imidazole, and fractions containing MAT2A were identified by sodium dodecyl sulfate polyacrylamide gel electrophoresis and pooled.
For determination of the inhibitory potency of compounds against the MAT2A homodimer, protein was diluted to 4 μg/mL in assay buffer (50 mM Tris, pH 8.0, 50 mM KCl, 15 mM MgCl2, 0.3 mM EDTA, 0.005% [w/v] bovine serum albumin [BSA]). Test compound was prepared in 100% dimethyl sulfoxide (DMSO) at 50× the desired final concentration. A 1 μL volume of compound dilution was added to 40 μL of enzyme dilution and the mixture was allowed to equilibrate for 60 minutes at 25° C. The enzymatic assay was initiated by the addition of 10 μL of substrate mix (500 μM ATP, pH 7.0, 40 μM L-methionine in 1× assay buffer), and the mixture was incubated for a further 60 minutes at 25° C. The reaction was halted and the liberated phosphate released by the enzyme in stoichiometric amounts by the production of S-adenosyl methionine (SAM) was measured using the PiColorLock Gold kit (Innova Biosciences, UK). Absolute product amounts were determined by comparison to a standard curve of potassium phosphate buffer, pH 8.0.

Assay [2] relates to HCT116 MTAP-/-. Description: Inhibition of cellular proliferation, 4 days, Cell Titer Glo, HCT116 MTAP-/-. It counts as cell-based. Particulars: Homo sapiens, HCT-116, 96 h, IC50 score, read-out: 4 Day Relative Growth Inhibition (MTAP −/−). On the procedure:
(§1) Assay for Inhibition of Cellular Proliferation
(§2) Test compound impact on cancer cell growth was assessed by treating cancer cells with compound for 4 days and then measuring proliferation using an ATP-based cell proliferation readout (Cell Titer Glo, Promega Corporation).
(§3) In a typical assay an isogenic pair of HCT116 human colon carcinoma cell lines which vary only in MTAP deletion status (HCT116 MTAP +/+ and HCT116 MTAP−/−) were plated in 96-well dishes at appropriate cell density. Following 24 hours, cells were then treated with the candidate MAT2A inhibitor. Prior to addition to cells, the compound was first serially diluted in 100% DMSO, typically as a 3-fold serial dilution starting at 500× top dose with 10 dose points including DMSO only control. Compound was then transferred to a working stock plate in cell culture media by adding 5 μL of compound in DMSO to 495 μL of cell culture media. This working stock was then added to cells via a further 5-fold dilution, by adding 25 μL of working stock to 100 μL of cells in culture media. Following compound addition, cells were incubated at 37° C./5% C02 for 4 days.
(§4) To measure inhibition of cellular proliferation, cells were allowed to equilibrate to room temperature for 30 minutes, and were then treated with 125 μL of Cell Titer Glo reagent. The plate was then covered with aluminum foil and shaken for 15 minutes to ensure complete mixing and full cell lysis. Luminescent signal was then measured using a plate-based luminometer Veritas version 1.9.2 using ATP standard curve to confirm assay reproducibility from run to run. This luminescence measure was converted to a proliferation index by subtracting from each data point the ATP luminescence signal measured from a bank (no cells) well and dividing by the ATP luminescence signal measured in 0.2% DMSO control well adjusted for signal in blank well. Compound activity was then represented as a percentage change in proliferation relative to a within-plate DMSO control against log 10 of compound concentration in molar (M) units.
In general terms: In ATP-based viability assays light output follows the ATP content of the culture.

For assay [3], the system named is HCT116 MTAP +/+. The assay can be described thus: Inhibition of cellular proliferation, 4 days, Cell Titer Glo, HCT116 MTAP+/+. It counts as cell-based. Particulars: Homo sapiens, HCT-116, 96 h, IC50 score, read-out: 4 Day Relative Growth Inhibition (MTAP +/+). The procedure:
as §1, §2, §3, §4

Assay [4] relates to SAM in HCT116 human colon carcinoma cell line with deleted MTAP gene. Description: Cellular assay of target engagement (SAM): SAM level by LC-MS/MS after 72 hrs. It counts as cell-based. Particulars: HCT-116, IC50 score, read-out: Cell 72 h SAM Inhibition (MTAP −/−). On the procedure:
Cellular Assay of Target Engagement (SAM)
Measurement of MAT2A activity in cells was made by direct quantitation of the abundance of the product of its enzymatic activity, SAM. Cancer cells were treated with candidate MAT2A inhibitors for a suitable incubation period, and the cells were then lysed using a reagent which quenched any further enzyme activity. Soluble metabolites including SAM were collected and SAM itself was directly measured from the lysate using quantitative LC-MS/MS.
A typical assay was performed using an HCT116 human colon carcinoma cell line which was genetically engineered to delete the MTAP gene (commercially available from Horizon Discovery). This cell line was utilized because it was determined that loss of the MTAP gene predicts sensitivity to MAT2A inhibitors. Cells were plated in 96-well dishes at appropriate cell density. Following 24 hours, cells were then treated with the candidate MAT2A inhibitor. Prior to addition to cells, the compound was first serially diluted in 100% DMSO, typically as a 3-fold serial dilution starting at 500× top dose with 10 dose points including DMSO only control. Compound was then transferred to a working stock plate in cell culture media by adding 5 μL of compound in DMSO to 495 μL of cell culture media. This working stock was then added to cells via a further 5-fold dilution, by adding 25 μL of working stock to 100 μL of cells in culture media. Following compound addition, cells were incubated at 37° C./5% CO2 for 72 hrs.
To quantitate SAM levels following compound treatment, cells were gently washed once in ammonium carbonate buffer (75 mM at pH 7.4), placed on dry ice, and lysed with metabolite extraction buffer (80% cold methanol and 20% water (v/v) with acetic acid at 1M final concentration with 200 ng/mL deuterated d3-SAM as internal control). Following centrifugation at 4° C. at 3,200 rpm for 30 minutes, the supernatant was collected and stored at −80° C. until analysis by Liquid Chromatography with tandem Mass Spectrometry (LC-MS/MS). LC-MS/MS analysis was performed using an API6500 Mass Spectrometer (Sciex, Framingham, Mass., USA) operating in positive ion spray mode and equipped with a Waters UPLC Acquity (Waters, Milford, Mass., USA) BEH Amide column. Multiple Reaction Monitoring data was acquired for SAM and the d3-SAM standard, using a mass transition pair at m/z 399.2→250.1 and 402.2→250.1, respectively. In a typical LC-MS/MS analysis, the initial flow rate was 0.5 ml/min of 25% mobile phase A (acetonitrile and water at 5:95 (v/v) with 1% formic acid and 10 mM ammonium acetate) and 75% mobile phase B (acetonitrile and water at 95:5 (v/v) with 1% formic acid and 10 mM ammonium acetate), 0.2-0.5 minutes with 75%-35% mobile phase B, 25%-65% mobile phase A, at 0.5 min 65% mobile phase A and 35% mobile phase B, 1.0-1.1 minutes with 35%-75% mobile phase B, 65%-25% mobile phase A, at 1.1 min 25% mobile phase A and 75% mobile phase B with a total run time of 1.5 minutes.

T1 sequence (P31153 whole entry): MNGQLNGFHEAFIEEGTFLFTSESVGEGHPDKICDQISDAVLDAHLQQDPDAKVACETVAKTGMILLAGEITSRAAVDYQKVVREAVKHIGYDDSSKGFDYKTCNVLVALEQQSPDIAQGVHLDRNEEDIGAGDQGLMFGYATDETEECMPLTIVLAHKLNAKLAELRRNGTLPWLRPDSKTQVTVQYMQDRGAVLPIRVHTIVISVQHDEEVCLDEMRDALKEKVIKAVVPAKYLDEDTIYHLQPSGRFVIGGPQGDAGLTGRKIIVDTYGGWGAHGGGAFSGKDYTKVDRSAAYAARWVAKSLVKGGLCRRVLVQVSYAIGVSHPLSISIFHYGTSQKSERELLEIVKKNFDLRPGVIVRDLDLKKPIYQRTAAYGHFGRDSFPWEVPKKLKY

Consider `COc1ccc(-c2cc3cnc(NCC(F)(F)F)nc3n(-c3ccc(-c4nc[nH]n4)cc3)c2=O)cc1` [Example 101, 8-(4-(1H-1,2,4-triazol-3-yl)phenyl)-6-(4-methoxyphenyl)-2-(2,2,2-trifluoroethylamino)pyrido[2,3-d]pyrimidin-7(8H)-one], for which the IC50 in assay [1] is under 100 nM; in assay [2] it was 100 to 1000 nM; in assay [3] it was at least 1000 nM; in assay [4] it was under 100 nM.
Consider `COc1ccc(-c2cc3cnc(NCC(F)(F)F)nc3n(-c3ccc(O)cc3)c2=O)cc1` [Example 106], for which the IC50 in assay [1] was 100 to 1000 nM; in assay [2] it was 100 to 1000 nM; in assay [3], at least 1000 nM; in assay [4] it was 100 to 1000 nM.
As for `COc1ccc(-c2cc3cnc(NCC(F)(F)F)nc3n(-c3ccc(OC)cc3)c2=O)cc1` [Example 115], the IC50 in assay [1] was under 100 nM; in assay [2], 100 to 1000 nM; in assay [3], at least 1000 nM; in assay [4], under 100 nM.
`COc1ccc(-n2c(=O)c(-c3ccc4ncccc4c3)cc3cnc(NCC(F)(F)F)nc32)cc1` [Example 116]: the IC50 in assay [1] is under 100 nM; in assay [2], under 100 nM; in assay [3], at least 1000 nM; in assay [4], under 100 nM.
With `COc1ccc(-c2cc3cnc(NCC(F)(F)F)nc3n(-c3ccc(C4CC4)cc3)c2=O)cc1` [Example 118], the IC50 in assay [1] was under 100 nM; in assay [2], under 100 nM; in assay [3], at least 1000 nM; in assay [4], under 100 nM.
Turning to `Cn1cc2cc(-c3cc4ccc(OCC(F)(F)F)nc4n(-c4ccc(Cl)cc4)c3=O)ccc2n1` [Example 119, 1-(4-chlorophenyl)-3-(2-methyl-2H-indazol-5-yl)-7-(2,2,2-trifluoroethoxy)-1,8-naphthyridin-2(1H)-one], the IC50 in assay [1] was under 100 nM; in assay [2], under 100 nM; in assay [3], at least 1000 nM; in assay [4] it was under 100 nM.
On to `Cn1cc2cc(-c3cc4ccc(NCC(F)(F)F)nc4n(-c4ccc(OC(F)F)cc4)c3=O)ccc2n1` [Example 120], for which the IC50 in assay [1] is under 100 nM; in assay [2], under 100 nM; in assay [3], at least 1000 nM; in assay [4], under 100 nM.
Consider `Cn1cc2cc(-c3cc4ccc(OC5CC5)nc4n(-c4ccc(Cl)cc4)c3=O)ccc2n1` [Example 121], for which the IC50 is under 100 nM in assay [1], under 100 nM in assay [2], at least 1000 nM in assay [3] and under 100 nM in assay [4].
`Cn1cc2cc(-c3cc4ccc(OCC(F)F)nc4n(-c4ccc(Cl)cc4)c3=O)ccc2n1` [Example 122]: the IC50 in assay [1] was under 100 nM; in assay [2], under 100 nM; in assay [3], 100 to 1000 nM; in assay [4] it was under 100 nM.
Turning to `COc1ccc(-n2c(=O)c(-c3ccc4nn(C)cc4c3)cc3ccc(OCC(F)(F)F)nc32)cn1` [Example 123], the IC50 in assay [1] was under 100 nM; in assay [2] it was under 100 nM; in assay [3], at least 1000 nM; in assay [4], under 100 nM.
In the case of `COc1ccc(-n2c(=O)c(-c3ccc4nn(C)cc4c3)cc3ccc(OCC(F)F)nc32)cn1` [Example 124], the IC50 in assay [1] was under 100 nM; in assay [2], under 100 nM; in assay [3] it was 100 to 1000 nM; in assay [4] it was under 100 nM.
For `COc1ccc(-c2cc3cnc(NCC(F)(F)F)nc3n(-c3ccc(OC(F)F)cc3)c2=O)cc1` [Example 127], the IC50 in assay [1] is under 100 nM; in assay [2], 100 to 1000 nM; in assay [3] it was at least 1000 nM; in assay [4] it was under 100 nM.
As for `COc1ccc(-c2cc3cnc(NCC(F)(F)F)nc3n(-c3ccc(CCO)cc3)c2=O)cc1` [Example 129], the IC50 in assay [1] is under 100 nM; in assay [2] it was under 100 nM; in assay [3], at least 1000 nM; in assay [4], under 100 nM.
Take `COc1ccc(-c2cc3ccc(NCC(F)(F)F)nc3n(-c3ccc(OC(F)F)cc3)c2=O)cc1` [Example 130, 1-(4-(difluoromethoxy)phenyl)-3-(4-methoxyphenyl)-7-(2,2,2-trifluoroethylamino)-1,8-naphthyridin-2(1H)-one]: the IC50 in assay [1] was under 100 nM; in assay [2] it was 100 to 1000 nM; in assay [3] it was at least 1000 nM; in assay [4], under 100 nM.
For the compound `COc1ccc(-c2cc3ccc(NCC(F)(F)F)nc3n(-c3ccc(OC)cc3)c2=O)cc1` [Example 131], the IC50 in assay [1] was under 100 nM; in assay [2], under 100 nM; in assay [3], at least 1000 nM; in assay [4], under 100 nM.
As for `Cn1cnc2ccc(-c3cc4ccc(NCC(F)(F)F)nc4n(-c4ccc(OC(F)F)cc4)c3=O)cc21` [Example 135], the IC50 in assay [1] is under 100 nM; in assay [2] it was under 100 nM; in assay [3], at least 1000 nM; in assay [4], under 100 nM.
With `CCOc1ccc2cc(-c3ccc4nn(C)cc4c3)c(=O)n(-c3ccc(Cl)cc3)c2n1` [Example 138], the IC50 in assay [1] was under 100 nM; in assay [2], under 100 nM; in assay [3], 100 to 1000 nM; in assay [4], under 100 nM.
For `CCOc1ccc2cc(-c3ccc4nncn4c3)c(=O)n(-c3ccc(C4CC4)nc3)c2n1` [Example 215], the IC50 in assay [1], in assay [2] and in assay [4] was under 100 nM in each case.
As to `[2H]C([2H])([2H])Oc1ccc(-n2c(=O)c(-c3ccc4nn(C)cc4c3)cc3ccc(O[C@H](C)C(F)(F)F)nc32)cc1` [Example 304], the IC50 in assay [1] and in assay [4] was under 100 nM throughout.
